Assays:
[1] = system: Klebsiella pneumoniae; assay: serial broth dilution, growth inhibition; type: cell-based; conditions: nutrient broth, incubated at 37° C. for 2 days
Procedure: (§1) Grove and W. A. Randall in "Assay Methods of Antibiotics", Med. Encycl. Inc., New York, 1955. […] 289.
(§2) For example, by employing a test like the serial broth dilution, see Grove and Randall, cited above, in which dilutions of the compounds of this invention in nutrient broth are inoculated with the microorganisms or fungi, described above, incubated at 37° C. for 2 days, respectively, and examined for the presence of growth, it may be shown that the preferred compounds N'N'-dicyclohexyl-α,α'-diisopropyl-2,5,8,11,14,17-hexaoxo-1,4,7,10,13,16-hexaazacyclooctadecane-1,10-diacetamide, isomer L, (Example 1), N'N'-dicyclohexyl-α,α'-diisopropyl-2,5,8,11,14,17-hexaoxo-1,4,7,10,13,16-hexaazacyclooctadecane-1,10-diacetamide, isomer M, (Example 1), and α,α'-diphenyl-N'N'-dicyclohexyl-2,5,8,11,14,17-hexaoxo-1,4,7,10,13,16-hexaazacyclooctadecane-1,10-diacetamide, isomer L, (Example 1) are able to inhibit growth totally in this system of Klebsiella pneumoniae and Serratia marcescens at a concentration of 100 mcg/ml.

[2] = system: Serratia marcescens; assay: serial broth dilution, growth inhibition; type: cell-based; conditions: nutrient broth, incubated at 37° C. for 2 days
Procedure: as §1, §2

Question: Which “concentration able to inhibit growth totally” value [1] does the source give for `CC(C)C(C(=O)NC1CCCCC1)N1CC(=O)NCC(=O)NCC(=O)N(C(C(=O)NC2CCCCC2)C(C)C)CC(=O)NCC(=O)NCC1=O` (stereo not drawn) [N,N'-Dicyclohexyl-α,α'-diisopropyl-2,5,8,11,14,17-hexaoxo-1,4,7,10,13,16-hexaazacyclooctadecane-1,10-diacetamide] here?
Answer: 100 µg/mL

Question: What about the “concentration able to inhibit growth totally” value [2] of the same compound?
Answer: 100 µg/mL

Question: `O=C1CNC(=O)CN(C(C(=O)NC2CCCCC2)c2ccccc2)C(=O)CNC(=O)CNC(=O)CN(C(C(=O)NC2CCCCC2)c2ccccc2)C(=O)CN1` (stereo not drawn) [α,α'-diphenyl-N,N'-dicyclohexyl-2,5,8,11,14,17-hexaoxo-1,4,7,10,13,16-hexaazacyclooctadecane-1,10-diacetamide] was tested. Which “concentration able to inhibit growth totally” value [1] did it give?
Answer: 100 µg/mL

Question: What about the “concentration able to inhibit growth totally” value [2] of the same compound?
Answer: 100 µg/mL
